Source: publication PMC8312610, “F4, a collagen XIX-derived peptide, inhibits tumor angiogenesis through αvβ3 and α5β1 integrin interaction” (Cell Adhesion & Migration, 2021)
“Also recorded” adds a separate entry of the source. Positions of bridges follow the written chain, without caps; N, C: chain ends. No end group written: not given here.

Legend:
[1] = tested on: αvβ3 integrin; test: Solid phase assay, direct binding to αvβ3; parameters: species or system human; conditions: coated integrin 26 × 10^−7 to 0.1 × 10^−7 mol/L; biotinylated-F4 26 × 10^−5 mol/L, or 20.8 × 10^−4 to 0.16 × 10^−4 mol/L; 90 min, room temperature, streptavidin-peroxidase/TMB, 450 nm; N = 2
Source text: (§1) Figure 5. F4 directly binds to αvβ3 and α5β1 integrins. Direct interaction between αvβ3 or α5β1 integrin and F4 was studied using solid phase assays as described in the material and method section. The F4 peptide was biotinylated to allow its detection using the streptavidin-peroxidase complex. Different conditions were used. (a-b) The amounts of coated αvβ3 (a) or α5β1 integrin (b) were increased while biotinylated F4 peptide was kept constant. (c-d) The concentration of biotinylated F4 peptide was increased while coated amounts of αvβ3 (c) or α5β1 (d) integrins were kept constant. (e-f) Competitive assays were performed using increasing concentrations of F4 peptide while biotinylated-F4 peptide and αvβ3 (e) or α5β1 (f) integrins were kept constant. […]
(§2) Wells of a 96-well plate were coated with α5β1 (ref. 3230-A5-050, R&D systems) and/or αvβ3 integrin (ref. 3050-AV-050, R&D systems) at different concentrations ranging from 26 × 10^−7 mol/L to 0.1 × 10^−7 mol/L (100 μL per well in PBS). […] The intensity of the yellow coloration was measured at 450 nm with an LB940 spectrophotometer (Berthold Technologies).
(§3) The optimum integrin amount for the coating was determined using the above protocol and the optimum ligand concentration was sought using different dilutions of the biotinylated-F4 peptide ranging from 20.8 × 10^−4 to 0.16 × 10^−4 mol/L.

[2] = tested on: α5β1 integrin; test: Solid phase assay, direct binding to α5β1; parameters: species or system human; conditions: coated integrin 26 × 10^−7 to 0.1 × 10^−7 mol/L; biotinylated-F4 26 × 10^−5 mol/L, or 20.8 × 10^−4 to 0.16 × 10^−4 mol/L; 90 min, room temperature, streptavidin-peroxidase/TMB, 450 nm; N = 2
Source text: as §1, §2, §3

[3] = tested on: HUVEC (Human Umbilical Vein Endothelial Cells); test: HUVEC proliferation (crystal violet); format: cell-based; conditions: 40 μM, 48 h, 5,000 HUVEC per well in ECGM, 560 nm, means ± SD (n = 16), N = 3
Protocol: Figure 1. […] 5,000 HUVEC were seeded in a 96 well plate and incubated with or without 40 μM NC1(XIX) or F4 for 48 hours. After washing, cells were fixed with glutaraldehyde and stained with crystal violet. Dye was eluted with 10% acetic acid and absorbance was read at 560 nm. The values are the means ± SD (n = 16). The experiment was repeated three times (N = 3) and the results presented in the figure correspond to the more representative one
(§4) Human Umbilical Vein Endothelial Cells (HUVEC) (Ref C-12253) were purchased from Promocell. They were grown in Endothelial Cell Growth Medium (ECGM) (Promocell, Ref C-22110: Basal medium supplemented with 0.02 mL/mL Fetal Calf Serum, 0.004 mL/mL Endothelial Cell Growth Supplement, 0.1 ng/mL Epidermal Growth Factor (recombinant human), 1 ng/mL Basic Fibroblast Growth Factor (recombinant human), 90 μg/mL Heparin, 1 μg/mL Hydrocortisone) at +37°C in a humid atmosphere containing 5% CO2. PromoCell Detach Kit was used for the detachment of HUVEC according to the manufacturer’s protocols (Promocell, ref C-41200).
For cell proliferation measurement, 5,000 HUVEC were seeded in 96-well plates and cultivated in ECGM with or without 40 μM NC1(XIX) or F4 at +37°C in a humid atmosphere containing 5% CO2. […] Dye was eluted with 10% (v/v) acetic acid and absorbance was read at 560 nm.

[4] = tested on: HUVEC; test: Capillary (pseudo-)tube formation on Matrigel; format: cell-based, human; conditions: 40 µM
Protocol: Figure 2. NC1(XIX) and F4 inhibit endothelial cell in vitro pseudotube formation. 50,000 HUVEC were seeded in Matrigel coated well of a 48 well-plate and incubated with or without 40 μM NC1(XIX) or F4. Pseudotube formation was observed and photographed under an inverted microscope after 8 hours (a). The number of segments, of nodes and the total length of pseudotubes were quantified by the ImageJ software, using the Angiogenesis Analyzer tool (b). The values are the means ± SD (n = 8 replicates). *** p < 0.001). The experiment was repeated three times (N = 3)
as §4
The ability of HUVEC to form pseudo-tubes was investigated on Matrigel (Corning, ref 356237). Matrigel was loaded into 48-well plate and allowed to polymerize at +37°C for 2 h. 50,000 HUVEC suspended in Basal media supplemented with 0.004 mL/mL Endothelial Cell Growth Supplement, 90 μg/mL Heparin, 1 μg/mL Hydrocortisone with or without 40 μM NC1(XIX) or F4 were seeded into each well. Plates were incubated at +37°C in a humid atmosphere containing 5% CO2, 95% for 8 h. The formation of the capillary network was then imaged under an inverted light microscope. Quantitative evaluation of the capillary network was performed using the angiogenesis analyzer tool of ImageJ analysis software. The number of nodes, of segments and the total length of the capillary network were determined.

[5] = tested on: Sprague Dawley rat aortic rings; test: Ex vivo rat aortic ring assay (endothelial cell outgrowth); format: cell-based; conditions: 40 μM, 14 days, Opti-MEM with 30 ng/mL VEGF, Matrigel, mean ± SD (n = 5), N = 2; p < 0.01 NC1(XIX), p < 0.001 F4
Protocol: Figure 3. NC1(XIX) and F4 inhibit endothelial cell ex vivo migration. Rat aortic rings were embedded in Matrigel in 24 well-plate and then incubated with or without 40 μM NC1(XIX) or F4 for 14 days. Micro-vessel outgrowth was observed under an inverted microscope after 14 days and photographed (a). Cell outgrowth from the tissue explant was measured using a home-made macro based on ImageJ analysis software. The results are presented as mean ± SD (n = 5 replicates) (b). The experiment was repeated twice (N = 2)
The ex vivo rat aortic ring assay was adapted from Baker et al.. Thoracic aorta was dissected from Sprague Dawley rat and stored in Opti-MEM (ThermoFisher, ref 31985062) supplemented with 1% penicillin/streptomycin in a Petri dish. Aorta was then cut into 0.5 mm rings that were incubated in Opti-MEM overnight at +37°C in a Petri dish. Matrigel (7 mg/mL) was loaded in 24-well plate and allowed to polymerize at +37°C for 30 min. The rings were carefully transferred from the Petri dish onto the Matrigel coated wells and were completely embedded by addition of Matrigel. The plate was incubated at +37°C for 30 min. Opti-MEM supplemented with 30 ng/mL VEGF with or without 40 μM NC1(XIX) or F4 was added. Plate was incubated at +37°C in a humid atmosphere containing 5% CO2 for 14 days. The supplemented culture medium was changed every 3 days. Rings were imaged under an inverted light microscope at 14 days. Quantitative evaluation of the angiogenic sprouting was determined by measuring the number of endothelial cell outgrowth from the primary tissue explant using a homemade macro based on ImageJ analysis software. The first step consisted in the semi-automatic selection of aortic ring shape at day 0 by manual threshold allowing the design of a top hat filter to obtain a relevant mask of this structure. The mask was then substracted from day 14 image to keep only outgrowing cells. The second step consisted in a manual threshold and the use of ‘Analyze Particules’ tool involving size criteria. The total cell number of cell outgrowing from the ring was determined.

[6] = tested on: melanoma cell; conditions: earlier work of the authors; ref [22],[23]; cited from earlier work
Source text: (§5) The aim of the present work was to study the anti-angiogenic properties of F4 peptide. […] By affinity chromatography, we identified αvβ3 and α5β1 integrins as potential receptors for F4 peptide on endothelial cell surface. Using solid phase assays, ... || Type XIX collagen, that belongs to the FACIT family (Fibril-Associated Collagens with Interrupted Triple helices), is a minor collagen associated to the basement membrane zone.

[7] = tested on: mouse melanoma model; conditions: mouse melanoma model; ref [22],[23]; cited from earlier work
Source text: as §5

[8] = tested on: α5β1 integrin; parameters: method as in PMID 26975851; conditions: NC1(XIX) covalently coupled to agarose beads, cortical protein extract; ref [27]; cited from earlier work
[9] = tested on: inhibitory nerve terminal assembly; parameters: method as in PMID 26975851; conditions: in vitro; ref [27]; cited from earlier work
[10] = 8 h, 50,000 HUVEC on Matrigel, ImageJ Angiogenesis Analyzer, p < 0.001 for NC1(XIX) and F4, n = 8, N = 3

Substance: biotinylated-F4: The F4 peptide was biotinylated to allow its detection using the streptavidin-peroxidase complex (CNPEDCLYPVSHAHQR; disulfide 1-6 (inferred); also: biotinylated (position not given here))
- binding to αvβ3, concentration dependence [1]: dependent both on the receptor (Figure 5(a,b)) and on ligand (Figure 5(c,d)) concentrations
- binding to α5β1, concentration dependence [2]: dependent both on the receptor (Figure 5(a,b)) and on ligand (Figure 5(c,d)) concentrations

Substance: NPEDCLYPVSHAHQRTGGN [NC1(XIX), NC1(XIX) domain at the C-terminus of the α1(XIX) collagen chain]
- effect on HUVEC proliferation [3]: not significantly modified; also recorded: does not affect endothelial cell proliferation
- decrease of the number of nodes vs control [4, 10]: 57%
- decrease of the number of segments vs control [4, 10]: 33%
- decrease of the total length of capillary tubes vs control [4, 10]: 31%
- inhibition of pseudo-tube formation ([4]; 8 h, HUVEC on Matrigel, compared to control): strongly inhibited pseudo-tube formation
- change of cell outgrowth from aortic ring vs control [5]: −57%
- melanoma cell migration and invasion [6]: inhibits melanoma cell migration and invasion
- in vivo tumor growth and angiogenesis [7]: strongly inhibits in vivo tumor growth as well as angiogenesis
- purification of α5β1 integrin on immobilised peptide [8]: able to purify α5β1 integrin from cortical protein extract
- inhibitory nerve terminal assembly [9]: involved in triggering inhibitory nerve terminal assembly in vitro
